The values that follow come from patent US5411879A, “Fatty acyl reductases” (Calgene Inc., priority 1993, dated 1995).

Like-named read-outs stand apart in the source and are kept apart here. A value given as a limit tells only on which side of the number the result lay.

Series [1] addresses T1, jojoba acyl-CoA reductase (Simmondsia chinensis, UniProt Q9XGY7).
T1 sequence (Q9XGY7 1-493): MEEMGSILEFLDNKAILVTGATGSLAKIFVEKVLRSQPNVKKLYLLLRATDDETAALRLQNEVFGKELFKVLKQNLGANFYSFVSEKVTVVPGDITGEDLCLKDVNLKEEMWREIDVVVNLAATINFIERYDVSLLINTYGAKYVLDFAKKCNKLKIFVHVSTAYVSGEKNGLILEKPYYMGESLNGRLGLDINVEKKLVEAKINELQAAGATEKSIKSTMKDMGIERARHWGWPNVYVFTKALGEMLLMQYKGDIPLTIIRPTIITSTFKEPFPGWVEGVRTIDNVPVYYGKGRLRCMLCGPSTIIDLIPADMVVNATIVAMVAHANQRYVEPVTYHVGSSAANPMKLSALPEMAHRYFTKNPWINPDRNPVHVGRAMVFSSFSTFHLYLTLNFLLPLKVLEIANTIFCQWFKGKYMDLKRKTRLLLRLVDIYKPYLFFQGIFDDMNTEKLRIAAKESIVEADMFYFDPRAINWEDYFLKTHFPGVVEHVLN
Conditions: for inhibitory effect on reductase activity (in words): known reductase/synthase inhibitors and sulphydryl blocking agents. The method, then: Reductase activity in a microsomal membrane preparation is measured by incubation of 20 μM [1-^14 C]acyl-CoA (usually tetracosenoyl-CoA, sp. act. 2-5 Ci/mol) with the sample to be assayed and 2 mM NADPH, in a total volume of 0.25 ml. The incubation mixture also contains 10% w/v glycerol, 1 mM DTT, and is buffered with 50 mM HEPES (4-[2-hydroxyethyl]-1-piperazineethane-sulfonic acid) (HEPES, here and as refered to hereafter is added from a 1M stock solution adjusted to pH 7.5) .
The assay is started by the addition of acyl-CoA substrate and the incubation is carried out at 30° C. for one hour. The assay is terminated by placing the assay tube on ice and immediately adding 0.25 ml isopropanol:acetic acid (5:1 v/v) . Unlabeled wax esters (0.1 mg) and oleyl alcohol (0.1 mg) are added as carriers. The [^14 C] lipids are extracted by the scaled-down protocol of Hara and Radin (Anal. Biochem. (1978) 90:420). Six ml of hexane/isopropanol (3:2, v/v) is added to the terminated assay. The sample is vortexed, 2 ml of aqueous sodium sulphate solution (5.5% w/v) is added, and the sample is again vortexed.
The microsomal membrane preparation described above is used for further characterization of the reductase enzyme. […] Characterization experiments were conducted at pH 7.5, which is close to the presumed physiological pH of the cytoplasm.
1. Salt Effects: A variety of salts were examined for their effect on reductase activity using a standard concentration of 0.5M for monobasic salts. Salts with divalent cations or anions were examined at 0.167M (to give the same ionic strength as the 0.5M monobasic salts) and also at 0.5M.
4. Reductase Inhibitor Assays: Several known inhibitors of other types of reductase proteins were tested for their effect on the jojoba acyl-CoA reductase activity.
Sulphydryl blocking agents were also screened for their effect on reductase activity.

Series [2] deals with jojoba acyl-CoA reductase. To be noted: previously shown, Pollard et al.; cited from earlier work.
Series [3] deals with T1, jojoba acyl-CoA reductase. Description: Acyl (substrate) specificity of the reductase, microsomal membrane preparation. The format is biochemical. Further details: The microsomal membrane preparation described above is used for further characterization of the reductase enzyme; from tissue; host or cells: developing jojoba embryos (seed coats removed), microsomal membrane preparation. To be noted: acyl-CoA thioester as substrate at 10 μM; 0.5M NaCl; pH 7.5. An excerpt: (§1) 3. […] NaCl concentration in these assays is 0.5M.

The subject of series [4] is jojoba acyl-CoA reductase. The series is described as above. The class given is biochemical. Conditions: substrates compared at 10 uM, 0.5M NaCl.
Description: as §1

The target in series [5] is T1, jojoba acyl-CoA reductase. In words: Competitive inhibition experiment, unlabelled palmitoyl-CoA vs [1-14C]tetracosenoyl-CoA. The format is biochemical. Further details: The microsomal membrane preparation described above is used for further characterization of the reductase enzyme; from tissue; host or cells: developing jojoba embryos (seed coats removed), microsomal membrane preparation. Conditions: unlabelled inhibitor 0-30 μM; [1-14C]tetracosenoyl-CoA 20 μM; read-out: concentration giving 50% inhibition of reductase activity towards tetracosenoyl-CoA.

The target in series [6] is T2, jojoba acyl reductase (Simmondsia chinensis, UniProt Q9XGY7).
T2 construct: The microsomal membrane preparation described above is used for further characterization of the reductase enzyme; from tissue; host or cells: developing jojoba embryos (seed coats removed), microsomal membrane preparation
T2 sequence (Q9XGY7 1-493): T1 sequence (Q9XGY7 1-493)
In words: Detergent inhibition of reductase activity and its reversibility. The format is biochemical. An excerpt:
Often, detergents which are used to solubilize membrane proteins are found to inhibit the enzymatic activity of a desired protein. […] However, as apparent detergent inhibition of reductase activity may be due to some effect other than irreversible inhibition of the enzyme, the reversibility of inhibition by CHAPS was examined.
A protocol for solubilizing jojoba acyl reductase activity utilizing the detergent CHAPS has been devised which yields approximately 85% of the reductase activity from the microsomal membrane preparation. This method is discussed in detail in Example 2. Similarly, studies of reversibility of apparent reductase inhibition by other detergents may be conducted to identify other useful detergents for solubilization of acyl reductase activity for jojoba or other candidate reductases.

The mark [7] stands for this setting: 0.5M for monobasic salts, divalent salts at 0.167M and 0.5M.
The mark [8] stands for this setting: millimolar concentrations (given for CoA and NADP+).

As for `[Ca+2].[Cl-].[Cl-]` [CaCl2], the “salt effect on reductase activity (in words)” value in series [1] (setting [7]) is “stimulate reductase activity”.

For `C/C=C/C/C=C/CCC(=O)[C@H]1O[C@H]1C(N)=O` [Cerulinen], in series [1], the “inhibitory effect on reductase activity (in words)” value is reported as “no strong inhibitory effect”.

With `O[C@H](CS)[C@H](O)CS` (racemic) [Dithiothreitol], in series [1] (other effectors, pH 7.5), the “effect on reductase activity (in words)” value was “stimulatory”.

In the case of `[Cl-].[K+]` [KCl], the “salt effect on reductase activity (in words)” value in series [1] (setting [7]) is “stimulate reductase activity”.

Turning to `N#CS` [KSCN], the “salt effect on reductase activity (in words)” value in series [1] was “no stimulation or marginal stimulation”.

Turning to `NC(=O)C1=CN([C@@H]2O[C@H](COP(=O)(O)OP(=O)(O)OC[C@H]3O[C@@H](n4cnc5c(N)ncnc54)[C@H](O)[C@@H]3O)[C@@H](O)[C@H]2O)C=CC1` [NADH], the “cofactor-dependent reductase activity relative to the NADPH-dependent activity” value in series [1] (cofactor in place of NADPH, not measurable above background) is below 2%. Further, in series [1] (setting [8]), the “effect on reductase activity (in words)” value is “marginal effects”.

For the compound `[Cl-].[Li+]` [LiCl], the “salt effect on reductase activity (in words)” value in series [1] (setting [7]) is listed as “stimulate reductase activity”.

Consider `NC(=O)CI` [iodoacetamide], for which the “inhibitory effect on reductase activity (in words)” value in series [1] is recorded as “no effect”.

In the case of `[Cl-].[Na+]` [NaCl], the “stimulation of reductase activity” value in series [1] (microsomes, 500000 µM) is listed as “Up to 15 fold”.

Turning to `O=S(=O)([O-])[O-].[Na+].[Na+]` [Na2 SO4], the “salt effect on reductase activity (in words)” value in series [1] (setting [7]) is reported as “stimulate reductase activity”.

In the case of `CCN1C(=O)C=CC1=O` [N-ethylmaleimide], the “inhibitory effect on reductase activity (in words)” value in series [1] is “strongly inhibit”.

`[Cl-].[Cl-].[Mg+2]` [MgCl2]: the “salt effect on reductase activity (in words)” value in series [1] (setting [7]) was “stimulate reductase activity”.

On to `NC(=O)c1ccc[n+]([C@@H]2O[C@H](COP(=O)([O-])OP(=O)(O)OC[C@H]3O[C@@H](n4cnc5c(N)ncnc54)[C@H](O)[C@@H]3O)[C@@H](O)[C@H]2O)c1` [NAD+], for which the “effect on reductase activity (in words)” value in series [1] (setting [8]) is on record as “marginal effects”.

For the compound `O=C(O)CN(CCN(CC(=O)O)CC(=O)O)CC(=O)O` [ethylenediaminetetraacetic acid], the “optimum concentration for stimulation of reductase activity” value in series [1] worked out at 2.5 mM. In addition, the “effect on reductase activity (in words)” value in series [1] (pH 7.5) is given as “some stimulation”.

With `CC(C)(COP(=O)(O)OP(=O)(O)OC[C@H]1O[C@@H](n2cnc3c(N)ncnc32)[C@H](O)[C@@H]1OP(=O)(O)O)[C@@H](O)C(=O)NCCC(=O)NCCS` [CoA, CoenzymeA], in series [1] (setting [8]), the “effect on reductase activity (in words)” value is given as “significant inhibition”.

Regarding stearoyl-ACP, the “activity as substrate of the reductase (in words)” value in series [2] was “activity as a substrate”.

`NC(=O)c1ccc[n+]([C@@H]2O[C@H](COP(=O)([O-])OP(=O)(O)OC[C@H]3O[C@@H](n4cnc5c(N)ncnc54)[C@H](OP(=O)(O)O)[C@@H]3O)[C@@H](O)[C@H]2O)c1` [NADP+]: in series [1] (setting [8]), the “effect on reductase activity (in words)” value is given as “significant inhibition”.

Take `CCCCCCCC/C=C\CCCCCCCCCCCC(=O)SCCNC(=O)CCNC(=O)[C@H](O)C(C)(C)COP(=O)(O)OP(=O)(O)OC[C@H]1O[C@@H](n2cnc3c(N)ncnc32)[C@H](O)[C@@H]1OP(=O)(O)O` [22:1 Acyl-CoA]: the “Reductase Activity, Acyl-CoA (10 μM)” value in series [3] was found to be 1.0 pmol/min/µL.

Take `CCCCCCCCCCCCCCCC(=O)SCCNC(=O)CCNC(=O)[C@H](O)C(C)(C)COP(=O)(O)OP(=O)(O)OC[C@H]1O[C@@H](n2cnc3c(N)ncnc32)[C@H](O)[C@@H]1OP(=O)(O)O` [16:0 Acyl-CoA, palmitoyl-CoA]: in series [4], the “activity as substrate of the reductase (in words)” value was “barely above background”. The IC50 in series [5] came to 5 µM.

`O=C(O)c1cc[c]([Hg][OH])cc1` [para-hydroxymercuribenzoate]: the “inhibitory effect on reductase activity (in words)” value in series [1] was “some inhibitory effect”.

For `CCCCCCCCCCCCCCCCCC(=O)SCCNC(=O)CCNC(=O)[C@H](O)C(C)(C)COP(=O)(O)OP(=O)(O)OC[C@H]1O[C@@H](n2cnc3c(N)ncnc32)[C@H](O)[C@@H]1OP(=O)(O)O` [18:0 Acyl-CoA], the “Reductase Activity, Acyl-CoA (10 μM)” value in series [3] stood at 1.4 pmol/min/µL.

For the compound `C[C@H](CCC(=O)NCCC[N+](C)(C)CCCS(=O)(=O)[O-])[C@H]1CC[C@H]2[C@@H]3[C@H](O)C[C@@H]4C[C@H](O)CC[C@]4(C)[C@H]3C[C@H](O)[C@]12C` [CHAPS, 3-[(3-cholamidopropyl)-dimethyl-ammonio]-1-propanesulfonate], the “inhibition of reductase activity by detergent (in words)” value in series [6] (at concentrations above the CMC) is reported as “strong inhibition”. In addition, the “reversibility of detergent inhibition (in words)” value in series [6] (enzyme exposed on ice, then returned to a concentration at or below the CMC) is “complete recovery of reductase activity”.

Turning to palmitoyl-ACP [16:0 Acyl-ACP], the “activity as substrate of the reductase (in words)” value in series [4] is given as “high”.

As for `CC[C@H](C)C(=O)O[C@H]1C[C@@H](C)C=C2C=C[C@H](C)[C@H](CC[C@@H]3C[C@@H](O)CC(=O)O3)[C@H]21` [Mevinolin], the “concentration at which an effect on jojoba acyl-CoA reductase activity was seen” value in series [1] (only had an effect at relatively high concentrations) is 100 µM.

In the case of `CCCCCCCC/C=C\CCCCCCCCCC(=O)SCCNC(=O)CCNC(=O)[C@H](O)C(C)(C)COP(=O)(O)OP(=O)(O)OC[C@H]1O[C@@H](n2cnc3c(N)ncnc32)[C@H](O)[C@@H]1OP(=O)(O)O` [20:1 Acyl-CoA], the “Reductase Activity, Acyl-CoA (10 μM)” value in series [3] worked out at 1.0 pmol/min/µL.
